Experimental data as given in patent publication US20090192187A1, “DRY POWDER FORMULATION COMPRISING AN ANTIC[…]” (Chiesi Farmaceutici S.p.A., priority 2008, published 2009).
Where a name gives a salt, the structure may show the parent alone.

How the values were obtained:
[1] = Estimation of lung levels after nebulisation; type: in vivo, guinea pig; details: nebulisation with submaximal bronchodilator activity, 2 hours after treatment
[2] = tested on: Ach-induced increase in Penh (airway reactivity); assay: Bronchodilation activity: barometric plethysmography, acetylcholine challenge after nebulised compound; type: in vivo, guinea pig; details: for bronchoprotective effect: twenty-four hours
Method: Airway reactivity is measured using barometric plethysmography (Buxco, USA). Male guinea pigs (500-600 g) are individually placed in plexiglass chambers. After an acclimatisation period, animals are exposed to nebulised saline for 1 minute to obtain airway baseline reading. This is followed by a 1 minute challenge with nebulised acetylcholine (Ach)-2.5 mg/mL. After 60 minutes, 5 minute nebulisation of vehicle or the compound I′ in the range 2.5-250 μM are applied, and Ach challenge is then repeated after 2, 5, 24, 48 and 72 hours (h). Recording of pressure fluctuations in the chambers are taken for 5 minutes after each nebulisation and analysed to calculate Enhanced Pause (Penh). Airway reactivity is expressed as percentage increase in Penh compared with Penh values from the nebulisation of vehicle.

M2 muscarinic receptors = target: T1, M2 muscarinic receptors (Homo sapiens, UniProt P08172); assay: Duration of action / dissociation kinetics at M2 receptors; details: compared with tiotropium bromide
T1 sequence (P08172 1-466): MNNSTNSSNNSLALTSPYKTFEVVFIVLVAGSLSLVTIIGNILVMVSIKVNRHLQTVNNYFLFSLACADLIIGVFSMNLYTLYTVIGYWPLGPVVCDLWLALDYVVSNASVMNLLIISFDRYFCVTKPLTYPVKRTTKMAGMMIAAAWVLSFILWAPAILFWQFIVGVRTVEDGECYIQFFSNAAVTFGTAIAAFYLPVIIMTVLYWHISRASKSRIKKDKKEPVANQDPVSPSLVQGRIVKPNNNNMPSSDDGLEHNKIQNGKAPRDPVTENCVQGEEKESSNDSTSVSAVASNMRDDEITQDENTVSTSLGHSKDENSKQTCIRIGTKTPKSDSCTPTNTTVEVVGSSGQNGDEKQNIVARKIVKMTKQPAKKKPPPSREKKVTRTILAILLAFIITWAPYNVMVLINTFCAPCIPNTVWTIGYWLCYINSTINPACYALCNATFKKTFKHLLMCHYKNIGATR

muscarinic receptors = assay: Receptor potency and duration of action compared with tiotropium bromide

Row | Molecule | retained dose in the target organ (lung) [1] | bronchoprotective effect ([2]; 25 μM inhaled) [%] | inhibition ([2]; 50 μM inhaled, 48 hours) [%] | bronchoprotective effect ([2]; 50 μM inhaled) [%] | maximal effect, inhibition of Ach-induced increase in Penh ([2]; 50 μM nebulised, two hours after end of nebulisation) | effect (inhibition of Ach-induced increase in Penh) ([2]; 250 μM inhaled, 48 hours) [%] | residual activity ([2]; 250 μM inhaled, 72 hours) [%] | time-course of the effect (duration of action) ([2]; increasing dose) | duration of effect ([2]; inhalation of lower concentrations (below 25 μM)) [h] | dose dependence of inhibition of Ach-induced increase in Penh ([2]; two hours after end of nebulisation, 2.5-250 μM) | duration of action on the M2 receptors (M2 muscarinic receptors) | duration of action (muscarinic receptors) | receptor potency (muscarinic receptors)
1 | 3-[[[(3-fluorophenyl)[(3,4,5-trifluoro phenyl)methyl]amino]carbonyl]oxy]-1-[2-oxo-2-(2-thienyl)ethyl]-1-azoniabicyclo[2.2.2]octane [compound 1′] | about 50 μg/kg | 63.7±15.1 | 49.2±23.2 | 87.1±8.7 | 99.6±0.4 | 83.0±16.1 | 34.8±20.9 | increasing duration of action with increasing dose | ≤ 5 | dose-dependently inhibited |  |  | 
2 | O=C(C[N+]12CCC(CC1)C(OC(=O)N(Cc1cc(F)c(F)c(F)c1)c1cccc(F)c1)C2)c1cccs1 (stereo not shown) [chloride salt of compound 1, 3-[[[(3-fluorophenyl)[(3,4,5-trifluorophenyl)methyl]amino]carbonyl]oxy]-1-[2-oxo-2-(2-thienyl)ethyl]-1-azoniabicyclo[2.2.2]octane] |  |  |  |  |  |  |  |  |  |  | significantly short-acting | equieffective to tiotropium bromide | equieffective to tiotropium bromide
